Measured values taken from publication PMC6254286, “Quantitative Structure − Antiprotozoal Activity Relationships of Sesquiterpene Lactones ^†” (Molecules, 2009).
Like-named read-outs stand apart in the source and are kept apart here.

Experiments:
[1] = test system: T. cruzi Tulahuen strain C2C4; test: In vitro activity against T. cruzi in L-6 host cells (beta-galactosidase/CPRG); assay type: cell-based, Trypanosoma cruzi; conditions: Trypanosoma cruzi, read-out: IC50 T. cruzi (Tcr)
Protocol: Trypanosoma cruzi. Rat skeletal myoblasts (L-6 cells) were seeded in 96-well microtiter plates at 2,000 cells/well in 100 µL RPMI 1640 medium with 10% FBS (fetal bovine serum) and 2 mM L-glutamine. After 24 hours the medium was removed and replaced by 100 µL per well containing 5,000 trypomastigote forms of T. cruzi Tulahuen strain C2C4 containing the β-galactosidase (Lac Z) gene. Fortyeight hours later the medium was removed from the wells and replaced by […] fresh medium with or without a serial drug dilution. Seven 3-fold dilutions were used covering a range from […]. Each drug was tested in duplicate. After 96 hours of incubation the plates were inspected under an inverted microscope to assure growth of the controls and sterility. Then the substrate CPRG/ Nonidet (50 µL) was added to all wells. A colour reaction developed within 2-6 hours and could be read photometrically at 540 nm.

[2] = test system: Leishmania donovani amastigotes (strain MHOM/ET/67/L82); test: L. donovani axenic amastigote assay (resazurin); assay type: cell-based; conditions: Leishmania donovani
Protocol: Leishmania donovani (axenic amastigote assay). […] Serial drug dilutions in duplicates were prepared covering a range from 30 to 0.041 µg/mL. […] The compounds used as positive controls in the various bioassays (see Table 1) were of commercial origin, with the exception of melarsoprol, which was a gift from WHO. Their purity (generally > 95%) was specified by the manufacturers.

[3] = test system: Trypanosoma brucei rhodesiense STIB 900; test: In vitro activity against T. brucei rhodesiense bloodstream forms (Alamar blue); assay type: cell-based; conditions: Trypanosoma brucei, 72 h, mean of two independent measurements
Protocol: (§1) Trypanosoma brucei rhodesiense and cytotoxicity against L6 cells. Minimum Essential Medium with Earle’s salts (50 µL) supplemented with 0.2 mM 2-mercapto-ethanol, 1 mM Na-pyruvate and 15% heat-inactivated horse serum was added to each well of a 96-well microtiter plate. […] Then 10^4 bloodstream forms of Trypanosoma brucei rhodesiense STIB 900 in 50 µL of medium were added to each well and the plate incubated at 37°C under a 5% CO2 atmosphere for 72 hours. […] The plate was then read in a Spectramax Gemini XS microplate fluorometer (Molecular Devices Corporation, Sunnyvale, CA, USA) using an excitation wavelength of 536 nm and emission wavelength of 588 nm. Fluorescence development was measured and expressed as percentage of the control. Data were transferred into the graphic programme Softmax Pro (Molecular Devices) which calculated IC50 values. Cytotoxicity was assessed using a similar protocol and rat skeletal myoblasts (L6 cells). […] All following steps were according to the T. b. rhodesiense protocol.

[4] = Cytotoxicity against L6 cells (Alamar blue); conditions: rat; for IC50: IC50 Cytotoxicity (L6), L6 rat skeletal myoblasts, 72 h, mean of two independent measurements
Protocol: as §1

[5] = test system: K1 strain of P. falciparum; test: Antiplasmodial [3H]-hypoxanthine incorporation assay; assay type: cell-based, Plasmodium falciparum; conditions: Plasmodium falciparum
Protocol: Plasmodium falciparum. Antiplasmodial activity was determined using the K1 strain of P. falciparum (resistant to chloroquine and pyrimethamine). A modification of the [3H]-hypoxanthine incorporation assay was used. Briefly, infected human red blood cells (final parasitaemia and haematocrit were 0.3% and 1.25%, respectively) in RPMI 1640 medium with 5% Albumax were exposed to serial drug dilutions in microtiter plates. After 48 hours of incubation at 37°C in a reduced oxygen atmosphere, 0.5 mCi 3H-hypoxanthine was added to each well. Cultures were incubated for a further 24 h before they were harvested onto glass-fiber filters and washed with distilled water. The radioactivity was counted using a BetaplateTM liquid scintillation counter (Wallac, Zurich, Switzerland). […] From the sigmoidal inhibition curves IC50 values were calculated. Assays were run in duplicate and repeated once.

[6] = TULAHUEN, L6, 96 h, Tulahuen C2C4 in L-6 cells, 96 h, mean of two independent measurements
[7] = 72 h, pH 5.4, axenic amastigotes, pH 5.4, 72 h, mean of two independent measurements, read-out: IC50 L. donovani (Ldon)
[8] = bloodstream forms STIB 900, 72 h, read-out: IC50 T. brucei rhodes. (Tbr)
[9] = L6 cells (rat skeletal myoblasts)
[10] = K1, K1 strain (resistant to chloroquine and pyrimethamine), mean of two independent measurements, read-out: IC50 P. falciparum (Pfc)
[11] = L6, Tulahuen C2C4 in L-6 cells, 96 h, mean of two independent measurements
[12] = axenic amastigotes, pH 5.4, 72 h, mean of two independent measurements, read-out: IC50 L. donovani (Ldon)
[13] = K1, read-out: IC50 P. falciparum (Pfc)

SMILES	IC50 [1, 6] [µM]	IC50 [2, 7] [µM]	IC50 [3, 8] [µM]	IC50 at 72 h [4, 9] [µM]	IC50 [5, 10] [µM]	IC50 [4] [µM]	also measured
C=C1C(=O)OC2C=C(C)CCC3OC3(COC(C)=O)CC(OC(=O)C3(C)OC3C)C12 (stereo not drawn) [Compound 37]	15.8	5.19	0.478	7.75	6.33		
CC1CC2OC(=O)C34CC5(C)C=CC13C(CC24)O5 (stereo not drawn) [Compound 23]	> 120	15.4	162		> 20	> 365	
C=C1C(=O)OC2CC(C)C3C(OC(C)=O)CC(O)C3(C)C(OC(C)=O)C12 (stereo not drawn) [Compound 15]	16.3	8.68	3.96		5.98	7.28	
C=C1C(=O)O[C@H]2[C@H]1CC/C(C)=C/CC[C@@]1(C)O[C@@H]21 [Compound 34, parthenolide]	10.7	3.56	0.388	7.24	11.9		
COc1cc([C@@H]2c3cc4c(cc3[C@H](O)[C@H]3COC(=O)[C@H]23)OCO4)cc(OC)c1OC [podophyllotoxin, reference compound]							IC50 at 72 h [4]: 0.012 µM
C=C1C(=O)OC2CC(C)C3C(OC(C)=O)CC(O)C3(C)CC12 (stereo not drawn) [Compound 10]	20.4	12.2	6.71		6.46	4.39	
CC(=O)OC1C2C(CC(C)C3C=CC(=O)C31C)OC(=O)C2C (stereo not drawn) [Compound 6]	6.93	> 4	1.42	3.06			
C=C1C(=O)OC2CC(C)C3C(OC(C)=O)CC(O)C3(C)C(O)C12 (stereo not drawn) [Compound 9]	45.8		9.28			12.3	
C=C1C(=O)OC2CC(C)C3C(O)CC(O)C3(C)C(OC(=O)C(C)=CC)C12 (stereo not drawn) [Compound 13]			19.2			31.8	IC50 [1, 11]: 60.2 µM; IC50 [2, 12]: 14.5 µM; IC50 [5, 13]: 27.5 µM
C=C1C(=O)OC2CC3(C)CC(=O)CC(C)C3=CC12 (stereo not drawn) [Compound 30]	17.3	8.7	1.6	10.2	10.7		
C=C1C(=O)OC2CC(C)C3(O)C=C(C(C)=O)C4(CC3CC12)C(=O)OC1CC(C)C(C=CC(C)=O)=CCC14 (stereo not drawn) [Compound 21]	16.1	22	0.638	9.43	4.96		
C=C1C(=O)OC2CC(C)C3C(O)CC(OC(=O)C(C)=CC)C3(C)C(O)C12 (stereo not drawn) [Compound 12]	49.2	18	11		10.6	16.7	
C=C1C(=O)OC2C=C(C)C(OC(C)=O)CC3OC3(C)CC(OC(=O)C(C)=CC)C12 (stereo not drawn) [Compound 39]							IC50 ([1]; TULAHUEN, L6, 96 h): 17.6 µM; IC50 ([2]; 72 h, pH 5.4, read-out: IC50 L. donovani (Ldon)): 30.1 µM; IC50 ([3]; read-out: IC50 T. brucei rhodes. (Tbr), bloodstream forms STIB 900, 72 h): 0.804 µM; IC50 at 72 h [4]: 10.1 µM; IC50 [5, 13]: 8.07 µM
CC1CC2OC(=O)C(C)C2C(O)C2(C)C(=O)C=CC12 (stereo not drawn) [Compound 5]			0.686			8.9	IC50 [1, 11]: 21.5 µM; IC50 [2, 12]: 3.85 µM; IC50 [5, 13]: 3.05 µM
C=C1C(=O)OC2C=C(C)CCC3OC3(CO)CC(OC(=O)C3(C)OC3C)C12 (stereo not drawn) [Compound 36]	25.6	2.73	14.3		9.44	13.6	
O=C(Cn1ccnc1[N+](=O)[O-])NCc1ccccc1 [benznidazole, reference compound]	2						
